What all share (assay type): functional, cell-based
The nature of experiment [1]: Cell cycle arrest in mouse EN2 cells assessed as accumulation at G1 phase after 24 hrs by flow cytometry. The following applies: EN2, 24 h. Background: A flow cytometer gives signals particle by particle.
Experiment [2] has as its system EN2. As to the kind of experiment: Cytotoxicity against mouse EN2 cells after 15 mins by MTT assay.
In experiment [3] the test system is EN2. The experiment is described as follows: Cytotoxicity against mouse EN2 cells after 10 mins by MTT assay. (Tetrazolium dyes change colour on reduction, which living cells bring about.)
Experiment [4] can be described thus: Cell cycle arrest in mouse EN2 cells assessed as accumulation at G1 phase after 24 hrs by flow cytometry relative to control.
Experiment [5] is described as follows: Cytotoxicity against mouse EN2 cells after 72 hrs by MTT assay. The following applies: EN2, 72 h.
A short description of experiment [6]: Cytotoxicity against mouse EN2 cells after 24 hrs by MTT assay. The conditions noted are these: EN2, 24 h.
The nature of experiment [7]: Cytotoxicity against mouse EN2 cells after 24 hrs by clonogenic assay. The conditions noted are these: EN2, 24 h.
Experiment [8] deals with EN2. The experiment is described as follows: Cytotoxicity against mouse EN2 cells after 5 mins by MTT assay.
Experiment [9] can be described thus: Cytotoxicity against mouse EN2 cells after 24 hrs by cell-count assay. The following applies: EN2, 24 h.
A short description of experiment [10]: Cell cycle arrest in mouse EN2 cells assessed as accumulation at S phase after 48 hrs by flow cytometry relative to control.
Experiment [11] can be described thus: Cell cycle arrest in mouse EN2 cells assessed as accumulation at S phase after 24 hrs by flow cytometry relative to control.
Experiment [12] in a line: Cytotoxicity against mouse EN2 cells at 50 uM after 24 hrs by clonogenic assay. The following applies: EN2, 24 h.
The nature of experiment [13]: Cell cycle arrest in mouse EN2 cells assessed as accumulation at G1 phase at 0.4 uM after 12 hrs by flow cytometry relative to control.
Experiment [14] is described as follows: Cytotoxicity against mouse EN2 cells after 2 hrs of incubation measured after 2 days by MTT assay.
Experiment [15] in a line: Cytotoxicity against mouse EN2 cells after 2 hrs of incubation measured after 24 hrs by cell-count assay.
Experiment [16] can be described thus: Cell cycle arrest in mouse EN2 cells assessed as accumulation at G1 phase at 0.4 uM after 24 to 48 hrs by flow cytometry relative to control.
Experiment [17] in a line: Cell cycle arrest in mouse EN2 cells assessed as accumulation at G1 phase after 2 hrs of incubation measured after 24 hrs relative to control.
Experiment [18] is described as follows: Cytotoxicity against mouse EN2 cells after 2 hrs of incubation measured after 6 days by clonogenic assay.

Structures are written as SMILES. Calls of active or inactive are those of the source. No cut-off for these calls is given here.

One may read the IC50 as the concentration at which inhibition is half-maximal. Consider `C[C@H]1[C@@H](O[C@H]2O[C@@H]3O[C@]4(C)CC[C@H]5[C@H](C)CC[C@@H]([C@H]2C)[C@@]35OO4)O[C@@H]2O[C@]3(C)CC[C@H]4[C@H](C)CC[C@@H]1[C@@]24OO3`, for which the IC50 is 1 µM in [1]; 2 µM in experiment [5]; 7.2 µM in experiment [6]; over 50 µM in experiment [7]; 8.9 µM in experiment [9]. The outcome (in the experiment with EN2 [2]; in the experiment with EN2 [3]; in experiment [4]; in the experiment on EN2 [8]) was Active.
Consider `C[C@@H]1CC[C@H]2[C@@H](C)C(=O)O[C@@H]3O[C@@]4(C)CC[C@@H]1[C@]32OO4` [ARTEMISININ], for which the outcome in experiment [10] and in [4] was inactive. In addition, the IC50 in experiment [1] is 1 µM; in experiment [5] it was 0.98 µM; in [6], 11.5 µM; in [7] it was over 50 µM; in experiment [9], 30 µM. In addition, in experiment [11], the Activity result was “Dose-dependent effect”.
For `C[C@H]1[C@H](O[C@H]2O[C@@H]3O[C@]4(C)CC[C@H]5[C@H](C)CC[C@@H]([C@H]2C)[C@@]35O4)O[C@@H]2O[C@]3(C)CC[C@H]4[C@H](C)CC[C@@H]1[C@@]24O3` [listing 1 of 2 here], half-maximal inhibition in [5] (IC50) required 99.8 µM.
On the same count and under the same terms, the value for `C[C@@H]1CC[C@@H]2[C@]34OO[C@](C)(CC[C@@H]13)O[C@H]4OC(=O)[C@]21CO1` was over 100 µM.
Consider `C[C@H]1[C@H](O[C@H]2O[C@@H]3O[C@]4(C)CC[C@H]5[C@H](C)CC[C@@H]([C@H]2C)[C@@]35O4)O[C@@H]2O[C@]3(C)CC[C@H]4[C@H](C)CC[C@@H]1[C@@]24O3` [listing 2 of 2 here], for which, in experiment [5], 8.9 µM corresponded to half-maximal inhibition (IC50).
On the same count and under the same terms, the value for `C[C@@H]1CC[C@H]2[C@@H](C)C(=O)O[C@@H]3O[C@@]4(C)CC[C@@H]1[C@]32O4` [DEOXYARTEMISININ] was 111 µM; that for `C[C@@H]1CC[C@@H]2[C@]34OO[C@](C)(CC[C@@H]13)O[C@H]4OC(=O)[C@@]21CO1` was 12.7 µM.
`C[C@H]1[C@H](O[C@H]2O[C@@H]3O[C@]4(C)CC[C@H]5[C@H](C)CC[C@@H]([C@H]2C)[C@@]35OO4)O[C@@H]2O[C@]3(C)CC[C@H]4[C@H](C)CC[C@@H]1[C@@]24OO3`: the IC50 in experiment [1] came out at 0.05 µM; in experiment [12] it was 1 µM; in [5], 0.11 µM; in experiment [6], 0.35 µM; in experiment [14], 3.6 µM; in experiment [15] it was 9.3 µM. For the same compound, the IC50 stood at 1 µM in experiment [17], 55.6 µM in experiment [18] and 0.54 µM in experiment [9]. The result (with EN2 [2]; in the experiment with EN2 [3]; in experiment [4]; in experiment [13]; with EN2 [8]) was Active. Also, in [16], the result was inactive. Besides, in experiment [17], the Activity result is “Dose-dependent effect”.

The values are drawn from ChEMBL document CHEMBL1145693, “Stereochemistry-dependent cytotoxicity of some artemisinin derivatives” (J Nat Prod, 1997).
